According to EP2156836A1, “[…] PHARMACEUTICAL COMPOSITIONS CONSISTING OF A COMBINATION OF A 5 alpha-REDUCTASE ENZYME INHIBITOR AND A 1 alpha- […] RECEPTOR ANTAGONIST” (priority 2007, dated 2008):
Where two headings read alike, the source gives them in different places.

What was measured:
[1] = test system: Benign Prostatic Hyperplasia; type: in vivo, male patients; settings: for Clinical Progression of BPH at 12 months of treatment (patients/group) / Clinical Progression of BPH at 12 months of treatment: daily tablet 12 months: Alfuzosine 10 mg, Finasteride 5 mg; for Clinical Progression of BPH at 12 months of treatment (patients/group): combination Finasteride 5 mg + Alfuzosine 5 mg; for Clinical Progression of BPH at 12 months of treatment (patients/group) / Increase in symptoms according to the score from American Association of Urology at 12 months of treatment (patients/group): n=40 per group; for Side Effects / patients who discontinued the treatment: human, in vivo; for Clinical Progression of BPH at 12 months of treatment: combination 5 mg + 5 mg, n=40
Method: In this clinical trial several tests were performed wherein Placebo, Finasteride, Alfuzosine and a combination of Finasteride/Alfuzosine were administered to a population of patients diagnosed with Benign Prostatic Hyperplasia.
(§1) Said clinical trial was applied in 160 male patients with a 60-year old average, wherein the symptoms manifested according to Urology American Association ranking were scored (score is assigned according to the following criteria: from 0= No symptoms to 35= severe symptoms). […] Finally, vital signs, treatment compliance and side effects were assessed for each of the groups.
(§2) At the beginning and at the end of said clinical trial the following examinations were applied to the patients: digital rectal examination, prostate-specific antigen assessment and urine analysis.
Subjects were randomized and assigned to a double-blind study divided into 4 groups. Randomization was stratified and medicament administration at night. • Group 1 Placebo: Patients received a daily tablet along 12 months. • Group 2 Finasteride: Patients received a daily 5 mg tablet along 12 months. • Group 3 Alfuzosine: Patients received a daily 10 mg tablet along 12 months. • Group 4 Combination: Patients received a tablet with a combination of Finasteride 5 mg and Alfuzosine 5 mg daily along 12 months.

plasmatic proteins = settings: plasma; cited from earlier work
[2] = in vivo; cited from earlier work
blood pressure = settings: after oral administration; cited from earlier work
[3] = test system: Benign Prostatic Hyperplasia; settings: for Incontinence (patients/group) / Invasive Therapy due to BPH (patients/group) / Urinary Retention (patients/group) / Urinary Tract infection (patients/group) / Incontinence / Invasive Therapy due to BPH / Urinary Retention / Urinary Tract infection: 12 months; for Incontinence (patients/group) / Invasive Therapy due to BPH (patients/group) / Urinary Retention (patients/group) / Urinary Tract infection (patients/group) / Incontinence / Invasive Therapy due to BPH / Urinary Retention / Urinary Tract infection / Increase in symptoms according to the score from American Association of Urology at 12 months of treatment / Increase in symptoms according to the score from American Association of Urology at 12 months of treatment (patients/group): same dosing as E17; for Clinical Progression of BPH at 12 months of treatment (patients/group): daily tablet 12 months: Doxazosine titrated 1 to 8 mg, combination Dutasteride 0.5 mg + Doxazosine 1 mg; for Clinical Progression of BPH at 12 months of treatment (patients/group) / Clinical Progression of BPH at 12 months of treatment: Dutasteride 0.5 mg; for Clinical Progression of BPH at 12 months of treatment (patients/group) / Increase in symptoms according to the score from American Association of Urology at 12 months of treatment (patients/group): n=40 per group; for Side Effects / patients who discontinued the treatment: human, in vivo; for Incontinence / Invasive Therapy due to BPH / Urinary Retention / Urinary Tract infection / Clinical Progression of BPH at 12 months of treatment / Increase in symptoms according to the score from American Association of Urology at 12 months of treatment: percent of patients; for Clinical Progression of BPH at 12 months of treatment: Doxazosine titrated 1 to 8 mg, combination 0.5 mg + 1 mg, n=40
Method: as §1, with “64-year” for “60-year”
as §2
Subjects were randomized and assigned to a double-blind study divided into 4 groups.

[4] = cited from earlier work; for serum concentrations as share of the equilibrium state concentration: daily dosage
prostate size = settings: cited from earlier work; for reduction of prostate size: Dutasteride daily dosage; for reduces prostate size: stated for the 5α-reductase enzyme inhibitors as a class
BPH = settings: cited from earlier work
[5] = percent of patients, 12 months, same dosing as E1
[6] = percent of patients, same dosing as E1

patients who discontinued the treatment [1] [%]	SMILES	Incontinence (patients/group) ([1]; 12 months, same dosing as E1)	Invasive Therapy due to BPH (patients/group) ([1]; 12 months, same dosing as E1)	Urinary Tract infection (patients/group) ([1]; 12 months, same dosing as E1)	Clinical Progression of BPH at 12 months of treatment (patients/group) [1]	Side Effects [1]	Incontinence [1, 5] [%]	Invasive Therapy due to BPH [1, 5] [%]	Urinary Tract infection [1, 5] [%]	Clinical Progression of BPH at 12 months of treatment ([1]; percent of patients) [%]	Increase in symptoms according to the score from American Association of Urology at 12 months of treatment [1, 6] [%]	Increase in symptoms according to the score from American Association of Urology at 12 months of treatment (patients/group) ([1]; same dosing as E1)	Incontinence (patients/group) [3]	Invasive Therapy due to BPH (patients/group) [3]	Urinary Retention (patients/group) [3]	Urinary Tract infection (patients/group) [3]	Clinical Progression of BPH at 12 months of treatment (patients/group) [3]	Side Effects [3]	patients who discontinued the treatment [3] [%]	Incontinence [3] [%]	further results
95	COc1cc2nc(N(C)CCCNC(=O)C3CCCO3)nc(N)c2cc1OC (stereo not drawn) [Alfuzosine]	4/40	4/40	2/40	18/40	dizziness, postural hypotension, asthenia and impotence	10	10	5	45	47.5	19/40	–	–	–	–	–	–	–	–	Urinary Retention (patients/group) ([1]; 12 months, same dosing as E1): 21/40; Urinary Retention [1, 5]: 52.5%
–	COc1cc2nc(N3CCN(C(=O)C4COc5ccccc5O4)CC3)nc(N)c2cc1OC (stereo not drawn) [Doxazosine]	–	–	–	–	–	–	–	–	–	–	–	6/40	5/40	22/40	3/40	18/40	dizziness, postural hypotension, and asthenia	99	15	bound to plasmatic proteins (plasmatic proteins): 98-99%; share of the dose removed by urine [2]: 9%; duration of hypotensive effects (remaining active) (blood pressure): at least 24 hours; time at which hypotensive effects are observed (blood pressure): 2 h; Invasive Therapy due to BPH [3]: 12.5%; Urinary Retention [3]: 55%; Urinary Tract infection [3]: 7.5%; Clinical Progression of BPH at 12 months of treatment [3]: 45%; Increase in symptoms according to the score from American Association of Urology at 12 months of treatment [3]: 50%; Increase in symptoms according to the score from American Association of Urology at 12 months of treatment (patients/group) [3]: 20/40
–	C[C@]12C=CC(=O)N[C@@H]1CC[C@@H]1[C@@H]2CC[C@]2(C)[C@@H](C(=O)Nc3cc(C(F)(F)F)ccc3C(F)(F)F)CC[C@@H]12 [Dutasteride]	–	–	–	–	–	–	–	–	–	–	–	5/40	2/40	15/40	1/40	11/40	erectile dysfunction, libido decrease and/or abnormal ejaculation	60	12.5	half-life in blood ([4]; blood): 3-5 weeks; serum concentrations as share of the equilibrium state concentration ([4]; after one month): 65%; serum concentrations as share of the equilibrium state concentration ([4]; after three months): approximately 90%; reduction of prostate size (prostate size; in some patients): up to 50%; reduction of prostate size (prostate size): at least 20%; reduces prostate size (prostate size): up to 50%; Invasive Therapy due to BPH [3]: 5%; Urinary Retention [3]: 37.5%; Urinary Tract infection [3]: 2.5%; Clinical Progression of BPH at 12 months of treatment [3]: 27.5%; Increase in symptoms according to the score from American Association of Urology at 12 months of treatment [3]: 35%; Increase in symptoms according to the score from American Association of Urology at 12 months of treatment (patients/group) [3]: 14/40
45	CC(C)(C)NC(=O)[C@H]1CC[C@H]2[C@@H]3CC[C@H]4NC(=O)C=C[C@]4(C)[C@H]3CC[C@]12C [Finasteride]	3/40	2/40	1/40	13/40	erectile dysfunction, libido decrease and/or abnormal ejaculation	7.5	5	2.5	32.5	37.5	15/40	–	–	–	–	–	–	–	–	reduces prostate size (prostate size): up to 50%; Incidence of side effects during Finasteride treatment (BPH; most common: erectile dysfunction, decrease in ejaculated semen volume): about 3%; reduction in DHT concentration in blood and in prostate gland (BPH; patients who suffer BPH): ≤ 30%; reduction of prostate-specific antigen (PSA) serum levels (BPH; patients who suffer BPH): up to 50%; efficacy in an analysis of six clinical studies (BPH; when prostate weighed >40 g, Logan YT, Belgeri MT 2005): very effective
